Measurements: patent publication US20090305886A1, “Pesticidal Mixtures” (BASF SE, priority 2006, published 2009)

Assays:
Assay type in all cases: in vivo
[1] = tested on: Mediterranean Fruitfly (Ceratitis capitata); assay: Mediterranean Fruitfly (Ceratitis capitata) egg microtiterplate test
Experimental: Mediterranean Fruitfly (Ceratitis capitata)
The active compounds are formulated in 1:3 DMSO:water. 50 to 80 eggs are placed into microtiterplates filled with 0.5% agar-agar and 14% diet in water. The eggs are sprayed with 5 μl of the test solution, the plates are sealed with pierced foils and kept at 27-29° C. and 75-85% humidity under fluorescent light for 6 days. Mortality is assessed on the basis of the agility of the hatched larvae. Tests are replicated 2 times.
(§1) The presence of a synergistic effect in terms of percent control, between the two mixing partners (X and Y) is calculated using the Colby equation (Colby, S. R., 1967, Calculating Synergistic and Antagonistic Responses in Herbicide Combinations, Weeds, 15, 20-22):
(§2) When the observed combined control effect is greater than the expected combined control effect (E), then the combined effect is synergistic.

[2] = tested on: Boll Weevil (Anthonomus grandis); assay: Boll Weevil (Anthonomus grandis) egg microtiterplate test
Experimental: Boll Weevil (Anthonomus grandis)
The active compounds are formulated in 1:3 DMSO:water. 10 to 15 eggs are placed into microtiterplates filled with 2% agar-agar in water and 300 ppm formaline. The eggs are sprayed with 20 μl of the test solution, the plates are sealed with pierced foils and kept at 24-26° C. and 75-85% humidity with a day/night cycle for 3 to 5 days. Mortality is assessed on the basis of the remaining unhatched eggs or larvae on the agar surface and/or quantity and depth of the digging channels caused by the hatched larvae. Tests are replicated 2 times.
as §1, §2

[3] = tested on: Vetch Aphid (Megoura viciae); assay: Vetch Aphid (Megoura viciae) leaf disk microtiterplate test
Experimental: Vetch Aphid (Megoura viciae)
The active compounds are formulated in 1:3 DMSO:water. Bean leaf disks are placed into microtiterplates filled with 0.8% agar-agar and 2.5 ppm OPUS™. The leaf disks are sprayed with 2.5 μl of the test solution and 5 to 8 adult aphids are placed into the microtiterplates which are then closed and kept at 22-24° C. and 35-45% under fluorescent light for 6 days. Mortality is assessed on the basis of vital, reproduced aphids. Tests are replicated 2 times.
as §1, §2

[4] = tested on: Tobacco Budworm (Heliothis virescens); assay: Tobacco Budworm (Heliothis virescens) test protocol no. II
Experimental: Tobacco Budworm (Heliothis virescens)—Test Protocol no. II
The active compounds are formulated in 1:3 DMSO:water. 15 to 25 eggs are placed into microtiterplates filled with diet. The eggs are sprayed with 10 μl of the test solution, the plates are sealed with pierced foils and kept at 27-29° C. and 75-85% humidity under fluorescent light for 6 days. Mortality is assessed on the basis of the agility and of comparative feeding of the hatched larvae. Tests are replicated 2 times.
as §1, §2

[5] = 0 + 0.1 ppm (compound I-1 alone)
[6] = 0 + 100 ppm (compound I-1 alone)
[7] = 0 + 0.3 ppm (compound I-1 alone)

Compound: CC(C)N1C(=O)N(c2ccccc2)CS/C1=N\C(C)(C)C [buprofezine]
- Average Control % ([1]; 3 + 0 ppm (buprofezine alone)): 0%
- Average Control % ([2]; 10 + 0 ppm (buprofezine alone)): 0%

Compound: N#CC(C#N)(CCC(F)(F)F)CC(F)(F)C(F)(F)C(F)(F)C(F)F [compound I-1, 2-(2,2,3,3,4,4,5,5-octafluoro-pentyl)-2-(3,3,3-trifluoro-propyl)-malononitrile]
- Average Control % [1, 5]: 0%
- Average Control % ([1]; 0 + 30 ppm (compound I-1 alone)): 0%
- Average Control % [1, 6]: 0%
- Average Control % [3, 5]: 0%
- Average Control % [3, 6]: 0%
- Average Control % [2, 5]: 0%
- Average Control % [2, 7]: 0%
- Average Control % ([2]; 0 + 3 ppm (compound I-1 alone)): 0%
- Average Control % [4, 7]: 0%

Compound: CC(C)c1cc(Oc2ccccc2)cc(C(C)C)c1NC(=S)NC(C)(C)C [diafenthiuron]
- Average Control % ([4]; 300 + 0 ppm (diafenthiuron alone)): 0%

Compound: N#Cc1nn(-c2c(Cl)cc(C(F)(F)F)cc2Cl)c(N)c1[S+]([O-])C(F)(F)F (stereo not drawn) [fipronil]
- Average Control % ([1]; 1 + 0 ppm (fipronil alone)): 0%
- Average Control % ([3]; 3 + 0 ppm (fipronil alone)): 50%
- Average Control % ([2]; 1 + 0 ppm (fipronil alone)): 0%

Compound: O=[N+]([O-])NC1=NCCN1Cc1ccc(Cl)nc1 [imidacloprid]
- Average Control % ([2]; 3 + 0 ppm (imidacloprid alone)): 0%

Compound: spinosad
- Average Control % ([1]; 0.3 + 0 ppm (spinosad alone)): 0%
- Average Control % ([3]; 300 + 0 ppm (spinosad alone)): 0%
